Key:
[1] = molecular target: T1, human NMDA receptor GluN1-GluN2C (Homo sapiens, UniProt Q05586+Q14957); test: FLIPR calcium assay, quinolinic acid, gentamicin, dextromethadone (Example 5 Part II), GluN1-GluN2C-CHO; type: cell-based; details: 10 μM glycine; for calcium response (mean±SEM): GluN2C, n=42
T1 construct: expressed in transfected cells; host or cells: CHO

[2] = molecular target: T2, recombinant human NMDAR GluN1 plus GluN2C (Homo sapiens, UniProt Q05586+Q14957); test: FLIPR calcium assay, gentamicin as PAM (Example 5 Part I), GluN2C cell line; type: cell-based; details: 10 μM test item; dextromethadone in presence and absence of 10 μM gentamicin
T2 construct: expressed in transfected cells; host or cells: CHO
Excerpt: (§1) A FLIPR calcium assay was used to profile gentamicin using stable cell lines expressing diheteromeric recombinant human NMDARs, containing GluN1 plus one amongst GluN2A, GluN2B, GluN2C or GluN2D subunit.

[3] = tested on: Western diet fed Sprague-Dawley rats, liver; test: Western diet treated rats, hepatic inflammation, steatosis and lipid metabolism genes; details: 10 mg/kg, gastric gavage, 15 days
patients with MDD = test: Phase 2 sub-analysis, MADRS and SDQ composite indexes and single functional items; type: in vivo, human
Excerpt: The present inventors selected items from the MADRS and SDQ scales and created Composite Indexes of cognitive and motivational functions: Cognitive composite index: [MADRS 6 (concentration difficulties), SDQ 16 (wakefulness), SDQ 22 (slowed down feeling, SDQ 35 (ability to focus), SDQ 36 (ability to remember), SDQ 37 (ability to find words), SDQ 38 (sharpness), SDQ 39 (ability to make decisions), SDQ 42 (ability to work)]; Motivation-energy composite index: [MADRS 7 (lassitude), SDQ 7 (motivation), SDQ 20 (energy)]; Mood composite index: [MADRS 1 (reported sadness), SDQ 1, 2, 3 (mood)]; Sleep composite index: [MADRS 4 (reduced sleep), SDQ 13 (ability to fall asleep), SDQ 14 (ability to stay asleep in the middle of the night), SDQ 15 (ability to stay asleep around the time before waking up)]; The present inventors also separately analyzed two additional single functional items part of the SDQ. 1) Social function, single question (SDQ 41, social functioning); 2) sexual function, single question (SDQ 40, sexual functioning).
Analysis of Change from Baseline at different times after the onset of treatment: The likelihood-based method applied is the Mixed-Effect Model Repeated Measures (MMRM) model with fixed-effect terms for treatment, visit (Day 2, Day 4, Day 7, Day 14) and the interaction between treatment and visit. The LS means and the LS means difference (the difference between REL-1017 and Placebo in the LS means) are provided along with the p-value for testing the hypothesis of no difference and the Cohen's effect size (calculated based on the LS mean differences and the pooled standard deviations). The 25 mg and 50 mg dosages are considered separately and combined: 25 mg+50 mg, Combined Treatment Group (CTG).

[4] = molecular target: T3, human NMDA receptor GluN1-GluN2B (Homo sapiens, UniProt Q05586+Q13224); test: FLIPR calcium assay, quinolinic acid, gentamicin, dextromethadone (Example 5 Part II), GluN1-GluN2B-CHO; type: cell-based; details: 10 μM glycine; for calcium response (mean±SEM): GluN2B, n=42
T3 construct: expressed in transfected cells; host or cells: CHO

[5] = Phase 1 SAD and MAD studies, pharmacokinetics
5-HT2A receptor = 5-HT2A receptor (Homo sapiens, UniProt P28223); details: agonist; Rickli et al., 2018; cited from earlier work
[6] = molecular target: T4, recombinant human NMDAR GluN1 plus GluN2B (Homo sapiens, UniProt Q05586+Q13224); test: FLIPR calcium assay, gentamicin as PAM (Example 5 Part I), GluN2B cell line; type: cell-based; details: 10 μM test item; dextromethadone in presence and absence of 10 μM gentamicin
T4 construct: expressed in transfected cells; host or cells: CHO
Excerpt: as §1

[7] = 0.04 μM L-Glu + 1000 μM QA + 10 μM DXT
[8] = 0.2 μM L-Glu + 100 μM QA + 10 μM DXT
[9] = 0.2 μM L-Glu + 1000 μM QA + 10 μM DXT
[10] = 1000 μM QA + 10 μg/ml GENT + 10 μM DXT
[11] = Table 41: 0.04 μM L-Glu + 10 μM DXT
[12] = Table 43: 0.2 μM L-Glu + 10 μM DXT
[13] = 25 mg, day not given (first set)
[14] = 50 mg, day not given (first set)
[15] = CTG 25 mg+50 mg, day not given (first set)

T1 sequence (Q14957 20-1233, other chains not shown): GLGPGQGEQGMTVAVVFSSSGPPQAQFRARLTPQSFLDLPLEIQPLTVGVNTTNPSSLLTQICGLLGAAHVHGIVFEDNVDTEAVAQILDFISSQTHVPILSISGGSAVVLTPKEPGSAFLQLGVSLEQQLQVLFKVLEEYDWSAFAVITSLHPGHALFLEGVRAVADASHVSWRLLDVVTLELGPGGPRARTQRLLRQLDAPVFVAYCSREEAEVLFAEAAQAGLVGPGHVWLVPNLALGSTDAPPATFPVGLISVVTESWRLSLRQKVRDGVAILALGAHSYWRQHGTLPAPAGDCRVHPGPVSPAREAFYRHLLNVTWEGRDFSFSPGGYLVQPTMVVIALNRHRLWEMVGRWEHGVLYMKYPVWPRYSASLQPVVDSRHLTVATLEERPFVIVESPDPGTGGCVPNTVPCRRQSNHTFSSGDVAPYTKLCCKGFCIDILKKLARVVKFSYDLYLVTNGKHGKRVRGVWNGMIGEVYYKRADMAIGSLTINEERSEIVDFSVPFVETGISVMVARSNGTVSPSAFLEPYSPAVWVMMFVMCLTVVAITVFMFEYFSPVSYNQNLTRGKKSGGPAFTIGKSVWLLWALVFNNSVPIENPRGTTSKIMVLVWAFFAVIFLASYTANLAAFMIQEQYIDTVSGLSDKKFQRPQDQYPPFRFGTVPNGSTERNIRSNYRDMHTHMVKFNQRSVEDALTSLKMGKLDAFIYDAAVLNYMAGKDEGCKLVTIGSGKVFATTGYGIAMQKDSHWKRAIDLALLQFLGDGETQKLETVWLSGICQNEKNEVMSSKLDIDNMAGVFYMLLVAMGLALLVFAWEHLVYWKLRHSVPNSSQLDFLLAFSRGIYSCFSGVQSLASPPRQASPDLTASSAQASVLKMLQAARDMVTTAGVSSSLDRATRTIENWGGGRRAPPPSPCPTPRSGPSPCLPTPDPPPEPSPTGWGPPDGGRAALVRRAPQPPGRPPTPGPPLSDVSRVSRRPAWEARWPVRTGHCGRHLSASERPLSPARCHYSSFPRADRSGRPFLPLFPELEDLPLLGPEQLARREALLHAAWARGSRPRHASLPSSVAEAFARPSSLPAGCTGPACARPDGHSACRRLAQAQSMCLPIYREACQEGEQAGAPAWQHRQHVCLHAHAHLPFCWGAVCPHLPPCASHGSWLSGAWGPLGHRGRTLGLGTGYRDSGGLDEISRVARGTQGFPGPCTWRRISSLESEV
T2 sequence (Q14957 20-1233, other chains not shown): as above
T3 sequence (Q13224 27-1484, other chains not shown): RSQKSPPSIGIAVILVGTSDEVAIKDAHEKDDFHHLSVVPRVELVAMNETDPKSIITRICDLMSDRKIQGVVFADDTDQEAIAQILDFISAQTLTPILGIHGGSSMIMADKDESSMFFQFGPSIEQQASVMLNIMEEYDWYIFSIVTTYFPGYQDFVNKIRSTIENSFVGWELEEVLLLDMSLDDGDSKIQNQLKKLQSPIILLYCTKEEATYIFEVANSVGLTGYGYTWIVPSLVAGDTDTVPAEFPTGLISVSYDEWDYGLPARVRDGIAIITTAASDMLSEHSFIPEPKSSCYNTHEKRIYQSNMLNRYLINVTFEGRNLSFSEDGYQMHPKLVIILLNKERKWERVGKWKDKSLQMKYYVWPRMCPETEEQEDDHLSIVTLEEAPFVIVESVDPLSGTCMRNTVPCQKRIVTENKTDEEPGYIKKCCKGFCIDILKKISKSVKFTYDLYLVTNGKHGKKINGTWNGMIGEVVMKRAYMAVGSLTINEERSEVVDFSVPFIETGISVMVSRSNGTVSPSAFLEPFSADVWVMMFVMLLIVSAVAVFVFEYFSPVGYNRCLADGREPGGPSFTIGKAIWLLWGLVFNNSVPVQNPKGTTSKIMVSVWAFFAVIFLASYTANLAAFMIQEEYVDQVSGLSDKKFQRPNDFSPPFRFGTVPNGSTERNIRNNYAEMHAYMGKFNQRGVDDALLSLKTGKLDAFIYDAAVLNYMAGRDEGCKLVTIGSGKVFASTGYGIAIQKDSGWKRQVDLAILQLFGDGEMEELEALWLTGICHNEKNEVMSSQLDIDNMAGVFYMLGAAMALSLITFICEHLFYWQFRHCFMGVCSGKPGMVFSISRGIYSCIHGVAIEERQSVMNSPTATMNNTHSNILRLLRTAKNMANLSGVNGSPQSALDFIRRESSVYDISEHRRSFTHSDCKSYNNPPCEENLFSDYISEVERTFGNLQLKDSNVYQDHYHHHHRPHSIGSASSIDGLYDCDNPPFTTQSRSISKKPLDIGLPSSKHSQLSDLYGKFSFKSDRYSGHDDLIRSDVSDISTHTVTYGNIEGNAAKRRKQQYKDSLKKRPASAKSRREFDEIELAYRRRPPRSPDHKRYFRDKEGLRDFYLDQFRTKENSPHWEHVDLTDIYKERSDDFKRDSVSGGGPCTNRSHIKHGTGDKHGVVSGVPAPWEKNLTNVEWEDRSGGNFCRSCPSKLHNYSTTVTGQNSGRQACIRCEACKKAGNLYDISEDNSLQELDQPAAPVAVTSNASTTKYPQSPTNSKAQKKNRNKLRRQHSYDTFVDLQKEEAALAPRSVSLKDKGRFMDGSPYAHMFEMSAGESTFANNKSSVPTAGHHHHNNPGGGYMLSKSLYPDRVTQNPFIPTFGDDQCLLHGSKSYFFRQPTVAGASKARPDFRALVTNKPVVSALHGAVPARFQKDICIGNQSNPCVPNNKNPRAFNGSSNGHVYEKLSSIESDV
T4 sequence (Q13224 27-1484, other chains not shown): as above
5-HT2A receptor, sequence (P28223 whole entry): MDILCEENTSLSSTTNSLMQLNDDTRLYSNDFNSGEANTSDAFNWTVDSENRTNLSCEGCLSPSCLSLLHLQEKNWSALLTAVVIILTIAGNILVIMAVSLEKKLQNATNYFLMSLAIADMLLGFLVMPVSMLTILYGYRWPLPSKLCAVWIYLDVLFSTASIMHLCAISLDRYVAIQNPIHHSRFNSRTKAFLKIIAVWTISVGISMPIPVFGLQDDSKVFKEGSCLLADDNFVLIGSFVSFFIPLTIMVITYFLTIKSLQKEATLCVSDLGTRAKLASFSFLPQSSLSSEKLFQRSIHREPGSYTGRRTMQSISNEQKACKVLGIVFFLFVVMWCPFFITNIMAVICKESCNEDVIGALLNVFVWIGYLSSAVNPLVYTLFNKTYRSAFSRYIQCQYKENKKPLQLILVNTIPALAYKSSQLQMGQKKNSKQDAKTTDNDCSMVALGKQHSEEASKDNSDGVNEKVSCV

Compound: CCC(=O)C(C[C@H](C)N(C)C)(c1ccccc1)c1ccccc1 [Dextromethadone, dextromethadone]
- calcium response (mean±SEM) ([1]; 0.04 μM L-Glu + 10 μM DXT): 1.6 ± 0.4
- calcium response (mean±SEM) ([1]; 0.04 μM L-Glu + 100 μM QA + 10 μM DXT): −2.5 ± 0.7
- calcium response (mean±SEM) [1, 7]: −8.6 ± 1.5
- calcium response (mean±SEM) ([1]; 0.2 μM L-Glu + 10 μM DXT): 13 ± 0.7
- calcium response (mean±SEM) [1, 8]: 7.7 ± 0.6
- calcium response (mean±SEM) [1, 9]: −3.8 ± 0.9
- % effect on calcium entry, 100 QA + 10 DXT ([1]; 100 μM QA + 10 μM DXT): −3.3 ± 0.5%
- calcium response (mean±SEM) ([1]; 1000 μM QA + 10 μM DXT): −8.0 ± 0.4
- % effect on calcium entry, 1000 QA + 10 DXT ([1]; 1000 μM QA + 10 μM DXT): −8.0 ± 0.4%
- calcium response (mean±SEM) [1, 10]: −11 ± 0.9
- calcium response (mean±SEM) [1, 11]: 1.6 ± 0.4
- calcium response (mean±SEM) [1, 12]: 13 ± 0.7
- calcium entry induced by 0.04 μM L-glutamate [2]: significantly reduced
- calcium entry induced by 0.2 μM L-glutamate [2]: significantly reduced
- calcium entry induced by 10 μM L-glutamate [2]: significantly reduced
- CCL2 gene expression in liver (qRT-PCR) [3]: didn't affect significantly this increase
- GPAT4 gene expression in liver (qRT-PCR) [3]: significant drop of their expression
- IL-6 gene expression in liver (qRT-PCR) [3]: able to counteract this effect
- IL-10 gene expression in liver (qRT-PCR) [3]: able to counteract this effect
- SREPB2 gene expression in liver (qRT-PCR) [3]: significant drop of their expression
- hepatic steatosis, histology [3]: reduction of steatosis
- Social function (SDQ 41), LS mean difference vs placebo (patients with MDD; 25 mg, Day 7): −1.07
- Social function (SDQ 41), effect size (patients with MDD; 25 mg, Day 7): 0.65
- Sexual function (SDQ 40), LS mean difference vs placebo (patients with MDD; 25 mg, Day 14): −1.32
- Sexual function (SDQ 40), effect size (patients with MDD; 25 mg, Day 14): 0.93
- Social function (SDQ 41), LS mean difference vs placebo (patients with MDD; 25 mg, Day 14): −1,246
- Social function (SDQ 41), effect size (patients with MDD; 25 mg, Day 14): 0.99
- Sexual function (SDQ 40), LS mean difference vs placebo (patients with MDD; [13]): −0.66
- Sexual function (SDQ 40), effect size (patients with MDD; [13]): 0.48
- Social function (SDQ 41), LS mean difference vs placebo (patients with MDD; 50 mg, Day 7): −1
- Social function (SDQ 41), effect size (patients with MDD; 50 mg, Day 7): 0.57
- Sexual function (SDQ 40), LS mean difference vs placebo (patients with MDD; 50 mg, Day 14): −0.4
- Sexual function (SDQ 40), effect size (patients with MDD; 50 mg, Day 14): 0.29
- Social function (SDQ 41), effect size (patients with MDD; 50 mg, Day 14): 0.98
- Sexual function (SDQ 40), LS mean difference vs placebo (patients with MDD; [14]): −0.28
- Sexual function (SDQ 40), effect size (patients with MDD; [14]): 0.19
- Social function (SDQ 41), effect size (patients with MDD; CTG 25 mg+50 mg, Day 7): 0.61
- Sexual function (SDQ 40), LS mean difference vs placebo (patients with MDD; CTG 25 mg+50 mg, Day 14): −0.86
- Sexual function (SDQ 40), effect size (patients with MDD; CTG 25 mg+50 mg, Day 14): 0.59
- Social function (SDQ 41), LS mean difference vs placebo (patients with MDD; CTG 25 mg+50 mg, Day 14): −1.19
- Social function (SDQ 41), effect size (patients with MDD; CTG 25 mg+50 mg, Day 14): 0.99
- Sexual function (SDQ 40), LS mean difference vs placebo (patients with MDD; [15]): −0.46
- Sexual function (SDQ 40), effect size (patients with MDD; [15]): 0.32
- calcium response (mean±SEM) ([4]; 0.04 μM L-Glu + 10 μM DXT): 0.2 ± 0.4
- calcium response (mean±SEM) [4, 7]: 13 ± 1.0
- calcium response (mean±SEM) ([4]; 0.2 μM L-Glu + 10 μM DXT): 8.0 ± 0.5
- calcium response (mean±SEM) [4, 8]: 9.9 ± 0.8
- calcium response (mean±SEM) [4, 9]: 13 ± 1.0
- % effect on calcium entry, 100 QA + 10 DXT ([4]; 100 μM QA + 10 μM DXT): −1.0 ± 0.8%
- calcium response (mean±SEM) ([4]; 1000 μM QA + 10 μM DXT): 12 ± 0.7
- % effect on calcium entry, 1000 QA + 10 DXT ([4]; 1000 μM QA + 10 μM DXT): 12 ± 0.7%
- calcium response (mean±SEM) [4, 10]: 21 ± 0.9
- calcium response (mean±SEM) [4, 11]: 0.2 ± 0.4
- calcium response (mean±SEM) [4, 12]: 8.0 ± 0.5
- conversion of dextromethadone to levomethadone in vivo ([5]; SAD and MAD subjects): No detectable conversion
- pharmacokinetic linearity ([5]; SAD and MAD, racially diversified subjects): linear pharmacokinetics with dose proportionality
- Ki (5-HT2A receptor): 520 nM
- calcium entry induced by 0.04 μM L-glutamate [6]: significantly reduced
- calcium entry induced by 0.2 μM L-glutamate [6]: significantly reduced
- calcium entry induced by 10 μM L-glutamate [6]: significantly reduced

Reference: patent US20230017786A1, “DEXTR[…] A DISEASE-MODIFYING TREATMENT FOR NEUROPSYCHIATRIC DISORDERS AND DISEASES” (priority 2020, published 2023)
